Measured values reported in ChEMBL document CHEMBL4251550, “Applications of parallel synthetic lead hopping and pharmacophore-based virtual screening in the discovery of efficient glycine receptor potentiators” (Eur J Med Chem, 2017).
≈ marks a conversion by molar mass, not a printed value.

Key:
[1] = Apparent permeability in MDCK cells; assay type: ADME, cell-based, Canis lupus familiaris; settings: dog
[2] = Solubility of compound in FaSSIF; assay type: physicochemical
[3] = Volume of distribution at steady state in CD1 mouse at 1 mg/kg, iv; assay type: ADME, organism-based; settings: in vivo, read-out: Vdss

SMILES	Papp [1]	solubility [2]	Vd [3]
O=S(=O)(c1ccc2c(c1)OCO2)N1CC[C@@H](c2ccccc2F)C1	28 ×10⁻⁶ cm/s	17 µM (≈ 5.94 µg/mL)	–
CN1C(=O)[C@@H]2CN(S(=O)(=O)c3ccc4c(c3)OCO4)C[C@@H]2c2ccccc21	44 ×10⁻⁶ cm/s	< 1 µM	–
COc1ccc(Cl)cc1OC1CN(S(=O)(=O)c2ccc3[nH]c(=O)oc3c2)C1	39 ×10⁻⁶ cm/s	96 µM (≈ 39.4 µg/mL)	1.4 L/kg
COc1ccccc1OC1CN(S(=O)(=O)c2ccc3c(c2)OCO3)C1	44 ×10⁻⁶ cm/s	102 µM (≈ 37.1 µg/mL)	–
